Non-standard residues stand in square brackets, D forms with d. Residues, ends and D or L forms follow the SMILES beside them. *: point of attachment. Phe(4-Br) = N[C@@H](Cc1ccc(Br)cc1)C(=O)O; PEG7 = NCCOCCOCCOCCOCCOCCOCCOCCC(=O)O; Fmoc = O=C(OCC1c2ccccc2-c2ccccc21)*; NMeL = CN[C@@H](CC(C)C)C(=O)O; Nle = CCCC[C@H](N)C(=O)O; Cbz = O=C(OCc1ccccc1)*; Aib = CC(C)(N)C(=O)O
Experiments:
Mus musculus = assay: Cardioprotective activity in C57BL/6 mouse assessed as reduction in mean arterial blood pressure at 1.4 uM/kg, iv measured after 15 mins relative to control; assay type: functional; conditions: 0.25 h
[1] = Protein binding in 55% mouse plasma at 100 uM incubated for 3 hrs by LC/MS detection based equilibrium dialysis; assay type: ADME, cell-free; conditions: 55% plasma, read-out: PPB (converted)
[2] = Protein binding in 55% human plasma at 100 uM incubated for 3 hrs by LC/MS detection based equilibrium dialysis; assay type: ADME, cell-free; conditions: 55% plasma, read-out: PPB (converted)
[3] = Half life in human plasma at 400 uM by HPLC analysis; assay type: ADME, cell-free
Heart [4] = assay: Cardioprotective activity in mouse Langendorff heart perfusion and ischemia-reperfusion injury model assessed as left ventricle developed pressure at 1 uM dosed at start of reperfusion for 10 mins; assay type: functional
Apelin receptor [5] = target: T1, Apelin receptor (Rattus norvegicus, UniProt Q9JHG3); assay: Displacement of [125I]-pyr-1-apelin-13 from EGFP-tagged wild-type rat apelin receptor expressed in CHO cell membranes by gamma counting method; parameters: species or system Cell membrane
T1 sequence (Q9JHG3 whole entry): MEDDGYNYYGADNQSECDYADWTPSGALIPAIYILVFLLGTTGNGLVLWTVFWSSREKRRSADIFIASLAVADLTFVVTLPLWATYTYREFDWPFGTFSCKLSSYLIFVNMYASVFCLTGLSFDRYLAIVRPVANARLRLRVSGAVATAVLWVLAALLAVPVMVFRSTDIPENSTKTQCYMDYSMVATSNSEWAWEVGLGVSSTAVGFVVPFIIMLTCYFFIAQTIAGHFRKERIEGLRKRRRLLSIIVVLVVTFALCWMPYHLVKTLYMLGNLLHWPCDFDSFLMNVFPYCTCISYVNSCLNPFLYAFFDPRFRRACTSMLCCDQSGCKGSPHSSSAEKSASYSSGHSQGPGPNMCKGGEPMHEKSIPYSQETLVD

[6] = Lipophilicity, log D of the compound in pH 7.4 PBS by LC/MS detection based shake flask assay; assay type: physicochemical
[7] = Half life in mouse plasma at 400 uM by HPLC analysis; assay type: ADME, cell-free
Heart [8] = assay: Cardioprotective activity in mouse Langendorff heart perfusion and ischemia-reperfusion injury model assessed as maximum derivative of change in systolic blood pressure over time at 1 uM dosed at start of reperfusion for 10 mins; assay type: functional
Apelin receptor [9] = target: T2, Apelin receptor (Homo sapiens, UniProt P35414); assay: Activation of APJ receptor (unknown origin) expressed in Chem-5 cells assessed as stimulation of Ca2+ mobilization by Calcium 6-GF dye based fluorescence based assay; assay type: functional, cell-based
T2 sequence (P35414 whole entry): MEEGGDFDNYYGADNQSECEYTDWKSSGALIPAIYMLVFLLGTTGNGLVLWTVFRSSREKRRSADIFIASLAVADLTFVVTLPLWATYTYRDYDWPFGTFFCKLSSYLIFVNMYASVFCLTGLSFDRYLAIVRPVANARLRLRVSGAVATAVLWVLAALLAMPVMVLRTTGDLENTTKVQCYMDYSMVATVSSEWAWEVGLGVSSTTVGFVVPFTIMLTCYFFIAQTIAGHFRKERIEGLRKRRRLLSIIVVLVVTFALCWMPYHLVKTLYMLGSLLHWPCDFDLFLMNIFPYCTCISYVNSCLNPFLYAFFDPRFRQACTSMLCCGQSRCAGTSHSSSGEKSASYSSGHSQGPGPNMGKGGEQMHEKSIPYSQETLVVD

| fraction unbound at 3 h, 100 µM [1] | fraction unbound at 3 h, 100 µM [2] | half-life at 400 µM [3] [h] | IC50 (Apelin receptor [5]) [nM] | logD [6] | half-life at 400 µM [7] [h] | EC50 (Apelin receptor [9]) [nM] | SMILES | Activity (Mus musculus) [mmHg] | Activity (Heart [4]) [mmHg] | dP/dt max (Heart [8]) [mmHg/s] |
| --- | --- | --- | --- | --- | --- | --- | --- | --- | --- | --- |
| 0.45 | 0.48 | 1.2 | 0.603 | -2.01 | 0.9 | – | CCCC[C@H](NC(=O)[C@@H]1CCCN1C(=O)CNC(=O)[C@H](CCCCN)NC(=O)[C@H](Cc1c[nH]cn1)NC(=O)[C@H](CO)NC(=O)[C@H](CC(C)C)N(C)C(=O)[C@H](CCCNC(=N)N)NC(=O)[C@@H]1CCCN1C(=O)[C@H](CCCNC(=N)N)NC(=O)[C@H](CCC(N)=O)NC(=O)[C@H](CCCNC(=N)N)NC(=O)[C@H](CCCNC(=N)N)NC(=O)[C@H](Cc1ccccc1)NC(=O)[C@@H](N)CCCCN)C(=O)NC(C)(C)C(=O)N[C@@H](Cc1ccc(Br)cc1)C(=O)O (H-KFRRQRPR[NMeL]SHKGP[Nle][Aib][Phe(4-Br)]-OH) | 30 | 25 | 778 |
| 0.11 | 0.06 | 27 | 0.55 | -1.45 | 2.8 | 2.51 | CCCC[C@H](NC(=O)[C@@H]1CCCN1C(=O)CNC(=O)[C@H](CCCCN)NC(=O)[C@H](Cc1c[nH]cn1)NC(=O)[C@H](CO)NC(=O)[C@H](CC(C)C)N(C)C(=O)[C@H](CCCNC(=N)N)NC(=O)[C@@H]1CCCN1C(=O)[C@H](CCCNC(=N)N)NC(=O)[C@H](CCC(N)=O)NC(=O)[C@H](CCCNC(=N)N)NC(=O)[C@H](CCCNC(=N)N)NC(=O)[C@H](Cc1ccccc1)NC(=O)[C@H](CCCCN)NC(=O)CCOCCOCCOCCOCCOCCOCCOCCNC(=O)OCC1c2ccccc2-c2ccccc21)C(=O)NC(C)(C)C(=O)N[C@@H](Cc1ccc(Br)cc1)C(=O)O ({Fmoc-PEG7}-KFRRQRPR[NMeL]SHKGP[Nle][Aib][Phe(4-Br)]-OH) | 47 | 90 | 2050 |
| 0.31 | 0.21 | 3 | 1.7 | -1.82 | – | 2.88 | CCCC[C@H](NC(=O)[C@@H]1CCCN1C(=O)CNC(=O)[C@H](CCCCN)NC(=O)[C@H](Cc1c[nH]cn1)NC(=O)[C@H](CO)NC(=O)[C@H](CC(C)C)N(C)C(=O)[C@H](CCCNC(=N)N)NC(=O)[C@@H]1CCCN1C(=O)[C@H](CCCNC(=N)N)NC(=O)[C@H](CCC(N)=O)NC(=O)[C@H](CCCNC(=N)N)NC(=O)[C@H](CCCNC(=N)N)NC(=O)[C@H](Cc1ccccc1)NC(=O)[C@H](CCCCN)NC(=O)CCOCCOCCOCCOCCOCCOCCOCCN)C(=O)NC(C)(C)C(=O)N[C@@H](Cc1ccc(Br)cc1)C(=O)O (H-[PEG7]KFRRQRPR[NMeL]SHKGP[Nle][Aib][Phe(4-Br)]-OH) | 35 | – | – |
| 0.49 | 0.43 | 0.02 | 0.0501 | -2.57 | 0.03 | – | CSCC[C@H](NC(=O)[C@@H]1CCCN1C(=O)CNC(=O)[C@H](CCCCN)NC(=O)[C@H](Cc1c[nH]cn1)NC(=O)[C@H](CO)NC(=O)[C@H](CC(C)C)NC(=O)[C@H](CCCNC(=N)N)NC(=O)[C@@H]1CCCN1C(=O)[C@H](CCCNC(=N)N)NC(=O)[C@H](CCC(N)=O)NC(=O)[C@H](CCCNC(=N)N)NC(=O)[C@H](CCCNC(=N)N)NC(=O)[C@H](Cc1ccccc1)NC(=O)[C@@H](N)CCCCN)C(=O)N1CCCC1C(=O)N[C@@H](Cc1ccccc1)C(=O)O (stereo not given in full) | 17 | 30 | 1020 |
| 0.17 | 0.15 | 18.2 | 1.91 | -1.54 | 2.9 | 6.17 | CCCC[C@H](NC(=O)[C@@H]1CCCN1C(=O)CNC(=O)[C@H](CCCCN)NC(=O)[C@H](Cc1c[nH]cn1)NC(=O)[C@H](CO)NC(=O)[C@H](CC(C)C)N(C)C(=O)[C@H](CCCNC(=N)N)NC(=O)[C@@H]1CCCN1C(=O)[C@H](CCCNC(=N)N)NC(=O)[C@H](CCC(N)=O)NC(=O)[C@H](CCCNC(=N)N)NC(=O)[C@H](CCCNC(=N)N)NC(=O)[C@H](Cc1ccccc1)NC(=O)[C@H](CCCCN)NC(=O)CCOCCOCCOCCOCCOCCOCCOCCNC(=O)OCc1ccccc1)C(=O)NC(C)(C)C(=O)N[C@@H](Cc1ccc(Br)cc1)C(=O)O ({Cbz-PEG7}-KFRRQRPR[NMeL]SHKGP[Nle][Aib][Phe(4-Br)]-OH) | 43 | 119 | 2600 |

— ChEMBL document CHEMBL4699534, “Optimizing PEG-Extended Apelin Analogues as Cardioprotective Drug Leads: Importance of the KFRR Motif and Aromatic Head Group for Improved Physiological Activity” (J Med Chem, 2020)
